Laboratory results from patent US12226400B2, “Neuroprotective disruption of Kv2.1/syntaxin interaction by small molecules” (UNIVERSITY OF PITTSBURGH-OF THE COMMONWEALTH SYSTEM OF …, priority 2018, dated 2025).

Tests used:
munc18/syntaxin 1A = biological target: T1, munc18/syntaxin 1A (Homo sapiens, UniProt Q16623); assay: Co-immunoprecipitation of munc18 and syntaxin in transfected HEK293 cells; format: cell-based; conditions: mean±SEM
T1 construct: syntaxin 1A plasmid a gift RC204873; host or cells: HEK293
T1 sequence (Q16623 whole entry, species assumed): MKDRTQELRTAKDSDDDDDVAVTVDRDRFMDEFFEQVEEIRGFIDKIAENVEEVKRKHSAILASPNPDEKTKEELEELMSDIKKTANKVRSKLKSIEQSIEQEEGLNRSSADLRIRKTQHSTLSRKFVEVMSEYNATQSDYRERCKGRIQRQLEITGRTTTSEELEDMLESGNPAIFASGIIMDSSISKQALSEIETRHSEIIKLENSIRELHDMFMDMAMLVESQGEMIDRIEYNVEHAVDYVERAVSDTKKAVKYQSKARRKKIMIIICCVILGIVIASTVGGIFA
Procedure: Western Blot. Co-immunoprecipitation of munc18 and syntaxin was carried out using PEI transfection of HEK293 cells (American Type Culture Collection) plated and maintained in DMEM medium with 10% FBS and penicillin/streptomycin. 24 hr prior to transfection, HEK293 cells are plated onto 150 mm petri dishes from confluent T75 flasks at the ratio of 2/3 flask per plate. 24 hr after plating, PEI transfection was carried out by mixing 25% munc18 (OriGene RC204873), 25% syntaxin 1A (gift from Raymond A Frizzell, Children's Hospital of Pittsburgh), and 50% pcDNA3 (Invitrogen) plasmids ([…] total plasmids with 500 μl medium without penicillin/streptomycin, and 110 μl PEI at 1 mg/ml). The PEI was lastly added to the mixture drop-wise to avoid clumping of the DNA precipitates. This transfection reagent was allowed to incubate in room temperature for at least 5 min. The HEK293 medium was replaced with medium without penicillin/streptomycin prior to the addition of the transfection mixture. At 24 hr after transfection, the transfection medium was replaced with regular medium containing either cpd5 or DMSO. The cells were lysed and protein was harvested 24 hr after cpd5/DMSO treatment using 200 μl NP40 buffer (Invitrogen) containing phenylmethylsulfonyl fluoride (PMSF, Sigma-Aldrich) and protease inhibitor cocktail (¼ tablet, cOmplete Mini, EDTA-free, Sigma-Aldrich). The resulting HEK293 sample was immunoprecipitated using mouse anti-syntaxin 1A antibody (abeam). The western blot was probed using the Biogen system with the same syntaxin 1A antibody and mouse anti-Flag (Sigma-Aldrich) used for the detection of munc18. Quantification of protein pulldown was normalized to the syntaxin signal before comparisons. SDS-PAGE in this study are run in 10% acrylamide. Small variations in band separation are caused by the semi-wet transfer method.

[1] = system: layer 2/3 corticocallosal neuron AMPAR EPSCs; assay: Slice electrophysiology, evoked AMPAR EPSCs in auditory cortex layer 2/3 corticocallosal neurons; format: cell-based, mouse
Procedure: Stereotaxic injections for electrophysiology. Male or female ICR mice P21-30 (Jackson Laboratory) were anesthetized with 3% isoflurane (1.5% maintenance) and placed on the stereotaxic frame (Kopf). Core body temperature was maintained at ˜37° C. with a heating pad and eyes were protected with ophthalmic ointment. Lidocaine (1%) was injected under the scalp and an incision was made into the skin at the midline to expose the skull. […] A volume of ˜0.12 μl fluorospheres was pressure injected (25 psi, 10 ms duration) from capillary pipettes (Drummond Scientific) with a Picospritzer (Parker-Hannifin). After injection, the pipette was held in the brain for 2 min before slowly withdrawing. The scalp of the mouse was closed with cyanoacrylate adhesive. […] Mice were monitored for signs of postoperative stress and pain.
Slice electrophysiology. […] Pipette capacitance was compensated and series resistance for recordings was lower than 15 MΩ and measured throughout the experiments. […]
To evoke AMPAR EPSCs, auditory cortex layer 2/3 neurons were stimulated locally with an Isoflex stimulator (AMPI), through a glass theta electrode containing ACSF, by a single 0.15 ms duration electrical pulse every 30 sec. AMPAR EPSCs were recorded in voltage clamp mode at −70 mV (peak values were averaged over a 0.3 ms time window). […]

Compound: COc1ccc(CNC(=O)Nc2cccc(-c3nc4ccccc4s3)c2)cc1OC [cpd5, 3-[3-(1,3-benzothiazol-2-yl)phenyl]-1-[(3,4-dimethoxyphenyl)methyl]urea]
- munc18 co-immunoprecipitated with syntaxin, cpd5/DMSO (munc18/syntaxin 1A; 10 μM cpd5, 24 hr): 1.032±0.034
- munc18 co-immunoprecipitated with syntaxin, cpd5/DMSO (munc18/syntaxin 1A; 30 μM cpd5, 24 hr): 0.4459±0.09367
- munc18 co-immunoprecipitated with syntaxin, cpd5/DMSO (munc18/syntaxin 1A; 100 μM cpd5, 24 hr): 0.4339±0.135
- AMPAR EPSCs amplitude normalized to control ([1]; 10 μM cpd5, p=0.153): 97.6±0.9%
- threshold, amplitude or duration of evoked synaptic potentials ([1]; Cpd5 10 μM, cortical layer 2/3 projection neurons, acute slices): No significant differences
